Here are results for four molecules from patent US4322346A, “5H-2,3-Benzodiazepine derivatives” (priority 1978, dated 1982).

Each structure is given as a SMILES string.

Assay type in all cases: in vivo
For experiment [1], the system named is mice. The experiment is described as follows: General behaviour of mice. The conditions noted are these: 100 mg/kg i.p. and, resp., 200 mg/kg p.o., SMA = spontaneous motor activity. As for the experimental part:
These compounds decrease the spontaneous motor activity and potentiate the effect of narcotics.
(§1) The tests were performed on mice. In the examination of the general behaviour the animals were treated intraperitoneally with 100 mg/kg or orally with 200 mg/kg of the compound in question. The fighting behaviour test was performed according to the method of Tedeschi et al. (J. Pharm. Exp. Ther. 25, 28 /1959/). The observations concerning the general behaviour of the animals and the ED50 values obtained in the fighting behaviour test are summarized in Table 1. In these tests 1-(3,4-dimethoxyphenyl)-4-methyl-5-ethyl-7,8-dimethoxy-5H-2,3-benzodiazepine (Grandaxin) was applied as reference substance.

The test system of experiment [2] is mice. The experiment is described as follows: Fighting behaviour test on mice (method of Tedeschi et al.). The conditions noted are these: for ED50: Mus musculus, po, mice; for "Fighting behaviour" test on mice, relative activity: relative to Grandaxin (1.0), from ED50 p.o. The protocol:
as §1

The test system of experiment [3] is mice. In words: Narcosis potentiating activity on mice (sodium hexobarbital narcosis). The conditions noted are these: for Narcosis potentiating activity on mice, Relative activity: relative to Grandaxin (1.0). As for the experimental part: When studying the narcosis potentiating effect, the benzodiazepine compounds were administered to mice in oral dosages of 12.5, 25, 50 or 100 mg/kg, and 30 minutes later 50 mg/kg of sodium hexobarbital were injected intravenously into the animals. The percentage prolongation of the narcosis period, compared to the value observed in the control group treated with sodium hexobarbital alone, was calculated. In these tests Grandaxin was applied again as reference substance.

Where [4] appears, read: Mus musculus, po, 12.5 mg/kg p.o., 30 minutes before 50 mg/kg sodium hexobarbital i.v., prolongation vs control, read-out: Narcosis potentiating activity on mice, Increase, %.
The mark [5] stands for this setting: Mus musculus, po, 25 mg/kg p.o., 30 minutes before 50 mg/kg sodium hexobarbital i.v., prolongation vs control, read-out: Narcosis potentiating activity on mice, Increase, %.

Consider `COc1cccc(C2=NN=C(C)Cc3cc(OC)c(OC)cc32)c1` [Example 46, 1-(3-Methoxyphenyl)-4-methyl-7,8-dimethoxy-5H-2,3-benzodiazepine], for which, in the experiment on mice [1], the General behaviour entry is “Strong decrease of SMA”. Moreover, in the experiment on mice [2], the ED50 is 50 mg/kg and the “"Fighting behaviour" test on mice, relative activity” value came to 1.3. In addition, the “Narcosis potentiating activity on mice, Relative activity” value in the experiment with mice [3] (12.5 mg/kg p.o.) is 8.24. Also, the “Narcosis potentiating activity on mice, Relative activity” value with mice [3] (25 mg/kg p.o.) was 3.70. Besides, the change in vivo at 12.5 mg/kg with mice [3] (setting [4]) was 140%. The change in vivo at 25 mg/kg in the experiment on mice [3] (setting [5]) turned out to be 300%.
For the molecule `CCC1C(C)=NN=C(c2ccc(OC)c(OC)c2)c2cc(OC)c(OC)cc21` (stereo not drawn) [Grandaxin, 1-(3,4-dimethoxyphenyl)-4-methyl-5-ethyl-7,8-dimethoxy-5H-2,3-benzodiazepine, reference compound], the General behaviour result in the experiment on mice [1] is given as “Decrease of SMA”. This molecule also came in with a median effective dose (ED50) in the experiment on mice [2] of 64 mg/kg. For the same molecule, the “"Fighting behaviour" test on mice, relative activity” value with mice [2] was 1.0. The “Narcosis potentiating activity on mice, Relative activity” value in the experiment on mice [3] (12.5 mg/kg p.o.), in the experiment with mice [3] (25 mg/kg p.o.), in the experiment on mice [3] (50 mg/kg p.o.) and in the experiment with mice [3] (100 mg/kg p.o.) was 1.0 in each case. Besides, in the experiment on mice [3] (setting [4]), the change in vivo at 12.5 mg/kg is 17%. Besides, the change in vivo at 25 mg/kg in the experiment with mice [3] (setting [5]) was found to be 81%. Also, the change in vivo at 50 mg/kg in the experiment on mice [3] (Mus musculus, po, 50 mg/kg p.o., 30 minutes before 50 mg/kg sodium hexobarbital i.v., prolongation vs control, read-out: Narcosis potentiating activity on mice, Increase, %) stood at 114%. The change in vivo at 100 mg/kg in the experiment with mice [3] (Mus musculus, po, 100 mg/kg p.o., 30 minutes before 50 mg/kg sodium hexobarbital i.v., prolongation vs control, read-out: Narcosis potentiating activity on mice, Increase, %) came to 239%.
In the case of `COc1cc2c(cc1OC)C(c1cccc(Cl)c1)=NN=C(C)C2` [Example 39, 1-(3-Chlorophenyl)-4-methyl-7,8-dimethoxy-5H-2,3-benzodiazepine], the General behaviour entry in the experiment on mice [1] is “Strong decrease of SMA”. Further, the 50% effect level in the experiment on mice [2] (ED50) was put at a dose of 16 mg/kg. Also, the “"Fighting behaviour" test on mice, relative activity” value in the experiment with mice [2] stood at 4.0. Besides, the “Narcosis potentiating activity on mice, Relative activity” value with mice [3] (12.5 mg/kg p.o.) came to 7.94; in the experiment with mice [3] (25 mg/kg p.o.), 4.25. In addition, the change in vivo at 12.5 mg/kg in the experiment on mice [3] (setting [4]) was 135%. Also, the change in vivo at 25 mg/kg in the experiment with mice [3] (setting [5]) was determined as 344%.
With `COc1cc2c(cc1OC)C(c1ccco1)=NN=C(C)C2` [Example 45, 1-(2-Furyl)-4-methyl-7,8-dimethoxy-5H-2,3-benzodiazepine], the General behaviour result in the experiment with mice [1] is reported as “Decrease of SMA”. Besides, in the experiment with mice [2], the 50% effect level (ED50) was put at a dose of 50 mg/kg and the “"Fighting behaviour" test on mice, relative activity” value turned out to be 1.3. Besides, the “Narcosis potentiating activity on mice, Relative activity” value in the experiment with mice [3] (25 mg/kg p.o.) turned out to be 3.09. Further, the change in vivo at 25 mg/kg with mice [3] (setting [5]) was found to be 250%.

As usually defined, the ED50 is the dose that gives a 50% effect, or the effect in half of the subjects. Lower therefore signals an effect at a small dose.
